Experimental data: the supplement of paper PMC8372320

assay: photocatalytic hydrogen evolution rate (per 5 mg catalyst); higher = more photocatalytic H2 evolution; extreme values may be limits of the assay; details: catalyst mass (mg): 5; Pt cocatalyst (wt%): 3; sacrificial medium: triethylamine/methanol/water 1:1:1
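Note: aromatic molecules in triethylamine/methanol/water with Pt photoreduced in situ, irradiated 3 h under a 1 sun AM 1.5G solar simulator (350–1000 nm), H2 quantified by headspace gas chromatography; listed molecule itself used as the photocatalyst at 5 mg per vial.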

SMILES	photocatalytic hydrogen evolution rate [µmol/h]
C=Cc1ccccc1	0
O=Cc1ccc(O)c(Cl)c1	0.0661
O=Cc1ccc(-c2cc(-c3ccc(C=O)cc3)c3ccc4c(-c5ccc(C=O)cc5)cc(-c5ccc(C=O)cc5)c5ccc2c3c54)cc1	3.19
O=[N+]([O-])c1cc([N+](=O)[O-])c(F)cc1F	0
COc1cc(C#N)c(C#N)cc1OC	0
O=Cc1ccc(C=O)s1	0.129
O=C1Nc2c(Br)cc(Br)cc2C1=O	0.874
c1cc2ccc3cccc4ccc(c1)c2c34	0.198
CC(Oc1ccc(Br)cc1Br)C(=O)NN (stereo not given)	0
Fc1c(F)c(Br)c2nsnc2c1Br	2.63
O=Cc1ccc(F)c(O)c1	0.000356
C1=Cc2cccc3cccc1c23	0
COc1ccc(OC)c(C=O)c1	10.9
c1cn[nH]c1	0
O=Cc1ccc(N(c2ccccc2)c2ccc(-c3ccc(N(c4ccccc4)c4ccc(C=O)cc4)cc3)cc2)cc1	0
Brc1c2c(c(Br)c3nsnc13)N=S=N2	0
Fc1c(F)c(Br)c(F)c(F)c1Br	0
COC(OC)(C(=O)c1ccccc1)c1ccccc1	1.18
Cc1c(C)c(C)c(C=O)c(C)c1C	0.844
COc1ccc(OC)cc1	0
COC(=O)c1ccc(B(O)O)cc1	0.0394
Brc1cc(Br)cc(-c2cc(Br)cc(Br)c2)c1	0.0514

SMILES	photocatalytic hydrogen evolution rate [µmol/h]
Cc1cc(Br)cc(Br)c1	0
COC(=O)c1nc(N)c(Br)cc1Br	0
c1ccc(-c2c(-c3ccccc3)c(-c3ccccc3)c(-c3ccccc3)c(-c3ccccc3)c2-c2ccccc2)cc1	0
Cn1cnc(C#N)c1C#N	0.0397
N#Cc1cccc(C#N)c1	0
N#Cc1c(-n2c3ccccc3c3ccccc32)c(-n2c3ccccc3c3ccccc32)cc(-n2c3ccccc3c3ccccc32)c1-n1c2ccccc2c2ccccc21	1.65
c1ccc(C(=C(c2ccccc2)c2ccccc2)c2ccccc2)cc1	0
N#Cc1c(Cl)c(Cl)c(C#N)c(Cl)c1Cl	1.44
N#Cc1cscc1C#N	0
Brc1cccc(Br)n1	0
Cc1c2ccccc2c(C)c2ccccc12	0.68
COc1ccc(C=O)cc1O	0
Cc1cc(C)c(Nc2ccc(Nc3c(C)cc(C)cc3C)c3c2C(=O)c2ccccc2C3=O)c(C)c1	0.331
O=C(O)c1ccc(C#Cc2cc(C#Cc3ccc(C(=O)O)cc3)cc(C#Cc3ccc(C(=O)O)cc3)c2)cc1	0
Nc1cc(Br)c(Br)cc1N	0
N#Cc1cc(F)c(F)cc1F	0.0582
O=Cc1sc(Br)nc1Br	0
c1ccc(-c2ccccc2-c2ccccc2)cc1	0
COc1cc(Br)ccc1C=O	12.3
CCOC(=O)c1cc(C(=O)OCC)cc(C(=O)OCC)c1	0.0434
O=Cc1cc(Br)ccc1Br	0.957
c1ccc(Nc2ccc(Nc3ccccc3)cc2)cc1	0

SMILES	photocatalytic hydrogen evolution rate [µmol/h]
Cc1c(O)cccc1O	0
O=Cc1ccc(C(=O)O)cc1O	8.19
O=Cc1ccc(N2CCCC2)cc1	0.173
Cc1[nH]c(C)c(C=O)c1C=O	0
Oc1ccc2c(c1)Oc1cc(O)ccc1C21c2ccccc2-c2ccccc21	0
c1ccc(-c2ccccc2)cc1	0
C=CS(=O)(=O)c1ccccc1	0
O=C(O)c1cc(Br)ccc1Br	0
O=C1c2ccccc2-c2ccc3c4ccc5c6c(ccc(c7ccc1c2c73)c64)C(=O)c1ccccc1-5	0.407
Brc1cc(Br)c2ccc3c(Br)cc(Br)c4ccc1c2c43	0.383
O=Cc1cc(Br)ccc1O	10.5
C#Cc1cc(C#C)cc(C#C)c1	0
N#Cc1cccc(C=O)c1	0.204
CN(C)c1ccncc1	0
O=C(O)c1ccc(-c2c3nc(c(-c4ccc(C(=O)O)cc4)c4ccc([nH]4)c(-c4ccc(C(=O)O)cc4)c4nc(c(-c5ccc(C(=O)O)cc5)c5ccc2[nH]5)C=C4)C=C3)cc1	2.56
N#Cc1c(F)c(F)c(Br)c(F)c1F	0
c1csc(-c2ccc(-c3cccs3)s2)c1	0
N#Cc1ccccc1CBr	0
CCOC(=O)c1ccc(C(=O)OCC)cc1	0
COC(=O)c1ccc(C(=O)OC)cc1	0.0838
Brc1cnc(Br)s1	0
N#Cc1csc(Br)n1	0

Continued, values first:

photocatalytic hydrogen evolution rate [µmol/h]	SMILES
5.1	O=Cc1ccc(-c2ccccn2)cc1
0.927	O=Cc1ccc(-c2ccc(C=O)cn2)nc1
0	Brc1ccc(C#CC#Cc2ccc(Br)cc2)cc1
0	C(=C\c1ccccc1)/c1ccccc1
0	c1ccc(Nc2ccccc2)cc1
0.411	N#Cc1ccc(/C=C/c2ccc(/C=C/c3ccc(C#N)cc3)cc2)cc1
0	N#Cc1ccnc(C#N)c1
2.56	O=C1c2ccccc2-c2ccccc21
0.0425	O=Cc1ccc(S(=O)(=O)c2ccccc2)cc1
1.66	O=Cc1ccc(C#Cc2ccccc2)cc1
0	Nc1ccc2ccc3cccc4ccc1c2c34
0	N#CCc1ccccc1-c1ccccc1CC#N
0.017	O=Cc1ccc(/C=C/c2ccccc2)cc1
0.0826	N#Cc1ccc(-c2ccc(N)nc2)cc1
0.0671	Cc1ccc(N(c2ccc(C)cc2)c2ccc(C=O)cc2)cc1
0	OC1c2ccccc2-c2ccccc21
0	c1cc(-c2ccncc2)ccn1
0.229	CC(=O)c1ccc(N)cc1
0	C#Cc1ccc(Br)cc1
0	O=C1c2c(O)cccc2Cc2cccc(O)c21

photocatalytic hydrogen evolution rate [µmol/h]	SMILES
0	Nc1ccc(-c2nc(-c3ccc(N)cc3)nc(-c3ccc(N)cc3)n2)cc1
0.006	Nc1ccc2c(c1)C(=O)c1ccc(N)cc1C2=O
2.49	Cn1c2ccccc2c2cc(C=O)ccc21
0	Nc1ccc(N)c2c1C(=O)c1c(N)ccc(N)c1C2=O
0	Brc1cc2ccc3cc(Br)cc4ccc(c1)c2c34
0	OB(O)c1ccc(-c2ccc(B(O)O)cc2)cc1
0.168	c1cncc(-c2nc(-c3cccnc3)nc(-c3cccnc3)n2)c1
0	O=C1C=CC(=O)N1c1ccccc1
0.109	Nc1cc(C(=O)O)ccc1C(=O)O
0	c1ccc2[nH]ccc2c1
0	N#Cc1ccc(-c2ccc(N)cc2)cc1
0	N#Cc1cc(N)cc(F)c1
0	c1ccc(C(c2ccccc2)c2ccccc2)cc1
0	O=C1c2ccccc2Cc2ccccc21
0	c1ccc(C(c2ccccc2)(c2ccccc2)c2ccccc2)cc1
0.057	c1ccc2c(c1)ccc1ccccc12
0.964	O=Cc1ccc(Cl)cc1
0.136	c1ccc2c(c1)Cc1cc3c(cc1-2)Cc1ccccc1-3
0.00401	Oc1ccc(-c2ccc(O)cc2)cc1
0	Brc1ccc(Br)c2ccccc12

photocatalytic hydrogen evolution rate [µmol/h]	SMILES
0	Brc1cccc2cc3cccc(Br)c3cc12
0.122	Clc1ccc2ccc(Cl)nc2n1
0	Nc1cccc(N)c1
0.074	Cc1ccc(Nc2ccc(C)cc2)cc1
4.22	N#CCc1ccc(C=O)cc1
0.214	O=C1c2cc(Br)ccc2-c2ccc(Br)cc21
0.0122	O=Cc1cccc(-c2c(O)ccc3ccccc23)c1
9.93	O=Cc1ccc2ccccc2c1
0	Cc1ccc(-c2ccc(C)cc2)cc1
0	c1ccc2ccccc2c1
0	N#Cc1cc(N)c(N)cc1C#N
0.174	Brc1ccc(-c2ccc(-c3ccc(Br)s3)c3nsnc23)s1
0	c1ccc2c(c1)Nc1ccccc1O2
0	Brc1ccc(I)cc1
0	N#Cc1ccc(Br)cc1F
0	N#Cc1cccc(F)c1F
0.922	Brc1ccc(N(c2ccc(Br)cc2)c2ccc(Br)cc2)cc1
0	C(C#Cc1ccccc1)#Cc1ccccc1
0	Brc1ccc2c(c1)Cc1cc(Br)ccc1-2
